Biological target: T1, AAK1 (Homo sapiens, UniProt Q2M2I8)
T1 construct: HA; expressed in transfected cells; host or cells: HEK293F
Test: HEK281 cell-based assay (phospho-mu2 Western blot in transfected HEK293F cells)
Settings: 3 hours incubation, read-out: CBA IC50
How it was run: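 After 3 hours at 37° C. with compound (five 3-fold-spaced concentrations, DMEM+0.5% FBS), transiently transfected HEK293F cells expressing full-length human AAK1 and Flag-tagged mu2 were lysed. mu2 phosphorylation was read by anti-phospho-mu2 immunoblot, normalized against total mu2 by anti-Flag blot.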

T1 sequence (Q2M2I8 1-863 isoform Q2M2I8-2): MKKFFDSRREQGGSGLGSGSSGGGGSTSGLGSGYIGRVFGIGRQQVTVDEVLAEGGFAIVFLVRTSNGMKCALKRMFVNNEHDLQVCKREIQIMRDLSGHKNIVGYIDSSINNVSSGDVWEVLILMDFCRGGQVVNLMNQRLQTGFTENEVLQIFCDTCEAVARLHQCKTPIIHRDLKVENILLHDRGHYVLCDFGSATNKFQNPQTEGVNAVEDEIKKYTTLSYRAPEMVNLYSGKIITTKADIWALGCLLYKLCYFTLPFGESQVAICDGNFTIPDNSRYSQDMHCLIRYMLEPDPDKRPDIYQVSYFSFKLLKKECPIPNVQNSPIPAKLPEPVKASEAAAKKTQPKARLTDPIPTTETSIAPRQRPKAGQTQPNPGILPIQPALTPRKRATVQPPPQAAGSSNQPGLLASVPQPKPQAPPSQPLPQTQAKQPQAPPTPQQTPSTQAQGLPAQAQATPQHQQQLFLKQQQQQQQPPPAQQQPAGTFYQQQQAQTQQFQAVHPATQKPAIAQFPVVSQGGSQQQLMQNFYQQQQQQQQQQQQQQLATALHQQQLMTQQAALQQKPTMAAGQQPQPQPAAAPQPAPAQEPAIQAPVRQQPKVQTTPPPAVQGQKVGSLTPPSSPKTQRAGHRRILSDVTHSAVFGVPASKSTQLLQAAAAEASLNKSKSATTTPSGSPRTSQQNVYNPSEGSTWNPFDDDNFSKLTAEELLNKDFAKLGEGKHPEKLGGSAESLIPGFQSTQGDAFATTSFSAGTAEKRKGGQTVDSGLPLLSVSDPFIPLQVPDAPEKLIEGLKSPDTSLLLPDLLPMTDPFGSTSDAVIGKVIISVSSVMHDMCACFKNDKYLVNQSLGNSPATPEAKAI

| SMILES | IC50 [nM] |
| --- | --- |
| CCCCNc1ccc2ncc(-c3ccc(CNCCOC)cc3)n2n1 [N-butyl-3-(4-(((2-methoxyethyl)amino)methyl)phenyl)imidazo[1,2-b]pyridazin-6-amine] | ≤ 1000 |
| CCCCNc1ccc2ncc(-c3ccc(CNCC4CCCO4)cc3)n2n1 (centres unmarked) [N-butyl-3-(4-((((tetrahydrofuran-2-yl)methyl)amino)methyl)phenyl)imidazo[1,2-b]pyridazin-6-amine] | ≤ 1000 |
| CCCCNc1ccc2ncc(-c3ccc(CNCC4CC4)cc3)n2n1 [N-butyl-3-(4-(((cyclopropylmethyl)amino)methyl)phenyl)imidazo[1,2-b]pyridazin-6-amine] | ≤ 1000 |
| CCCCNc1ccc2ncc(-c3ccc(CNC(C)C)cc3)n2n1 [N-butyl-3-(4-((isopropylamino)methyl)phenyl)imidazo[1,2-b]pyridazin-6-amine] | ≤ 1000 |
| CCCCNc1ccc2ncc(-c3ccc(CNCCC)cc3)n2n1 [N-butyl-3-(4-((propylamino)methyl)phenyl)imidazo[1,2-b]pyridazin-6-amine] | ≤ 1000 |
| CCCCNc1ccc2ncc(-c3ccc(CNC(C)(C)C)cc3F)n2n1 [N-butyl-3-(4-((tert-butylamino)methyl)-2-fluorophenyl)imidazo[1,2-b]pyridazin-6-amine] | ≤ 1000 |
| CCCCNc1ccc2ncc(-c3ccc(CNC(C)(C)C)c(F)c3)n2n1 [N-butyl-3-(4-((tert-butylamino)methyl)-3-fluorophenyl)imidazo[1,2-b]pyridazin-6-amine] | ≤ 100 |
| CCCCNc1ccc2ncc(-c3ccc(C4CCCN4)cc3)n2n1 (centres unmarked) [N-butyl-3-(4-(pyrrolidin-2-yl)phenyl)imidazo[1,2-b]pyridazin-6-amine] | ≤ 1000 |
| CCCCNc1ccc2ncc(-c3ccc4c(c3)CNC4)n2n1 [N-butyl-3-(isoindolin-5-yl)imidazo[1,2-b]pyridazin-6-amine] | ≤ 1000 |
| COc1cnccc1-c1cnc2ccc(NCCC(C)C)nn12 [N-isopentyl-3-(3-methoxypyridin-4-yl)imidazo[1,2-b]pyridazin-6-amine] | ≤ 100 |
| CNC(=O)c1ccc(-c2cnc3ccc(NCCc4ccccc4OC(F)(F)F)nn23)cc1 [N-methyl-4-(6-((2-(trifluoromethoxy)phenethyl)amino)imidazo[1,2-b]pyridazin-3-yl)benzamide] | ≤ 10 |
| CCCCCNc1ccc2ncc(-c3ccc(C4CCCN4)cc3)n2n1 (centres unmarked) [Pentyl-[3-(4-pyrrolidin-2-yl-phenyl)-imidazo[1,2-b]pyridazin-6-yl]-amine] | ≤ 1000 |
| CCCCNc1nn2c(-c3ccc(CN)cc3)cnc2cc1C [[3-(4-Aminomethyl-phenyl)-7-methyl-imidazo[1,2-b]pyridazin-6-yl]-butyl-amine] | ≤ 100 |
| NCc1ccc(-c2cnc3ccc(NCCCc4ccccc4)nn23)cc1 [[3-(4-Aminomethyl-phenyl)-imidazo[1,2-b]pyridazin-6-yl]-(3-phenyl-propyl)-amine] | ≤ 100 |
| NCc1ccc(-c2cnc3ccc(NC4CCCCC4)nn23)cc1 [[3-(4-Aminomethyl-phenyl)-imidazo[1,2-b]pyridazin-6-yl]-cyclohexylamine] | ≤ 1000 |
| CC(C)N(CCNc1ccc2ncc(-c3ccc(C(N)=O)cc3)n2n1)C(=O)OC1CCCC1 [cyclopentyl (2-((3-(4-carbamoylphenyl)imidazo[1,2-b]pyridazin-6-yl)amino)ethyl)(isopropyl)carbamate] | ≤ 100 |

| SMILES | IC50 [nM] |
| --- | --- |
| CCOC(=O)CCCNc1ccc2ncc(-c3ccc(CN)cc3)n2n1 [ethyl 4-((3-(4-(aminomethyl)phenyl)imidazo[1,2-b]pyridazin-6-yl)amino)butanoate] | ≤ 100 |
| CCOC(=O)N(C)CCNc1ccc2ncc(-c3ccncc3OC)n2n1 [ethyl (2-((3-(3-methoxypyridin-4-yl)imidazo[1,2-b]pyridazin-6-yl)amino)ethyl)(methyl)carbamate] | ≤ 10 |
| CCOC(=O)N(C)CCNc1ccc2ncc(-c3ccc(C(=O)NCCC(C)C)cc3)n2n1 [ethyl (2-((3-(4-(isopentylcarbamoyl)phenyl)imidazo[1,2-b]pyridazin-6-yl)amino)ethyl)(methyl)carbamate] | ≤ 100 |
| CCOC(=O)N(C)CCNc1ccc2ncc(-c3ccc(C(=O)NC(C)(C)C)cc3)n2n1 [ethyl (2-((3-(4-(tert-butylcarbamoyl)phenyl)imidazo[1,2-b]pyridazin-6-yl)amino)ethyl)(methyl)carbamate] | ≤ 100 |
| CCOC(=O)N(CCNc1ccc2ncc(-c3ccc(C(N)=O)cc3)n2n1)C(C)C [ethyl (2-((3-(4-carbamoylphenyl)imidazo[1,2-b]pyridazin-6-yl)amino)ethyl)(isopropyl)carbamate] | ≤ 100 |
| CCOC(=O)N(C)CCNc1ccc2ncc(-c3ccc(C(N)=O)cc3)n2n1 [ethyl (2-((3-(4-carbamoylphenyl)imidazo[1,2-b]pyridazin-6-yl)amino)ethyl)(methyl)carbamate] | ≤ 100 |
| CCOC(=O)N(C)CCCNc1ccc2ncc(-c3ccc(C(C)=O)s3)n2n1 [ethyl (3-((3-(5-acetylthiophen-2-yl)imidazo[1,2-b]pyridazin-6-yl)amino)propyl)(methyl)carbamate] | ≤ 1000 |
| CCOC(=O)N(CCNc1ccc2ncc(-c3ccncc3OC)n2n1)C(C)C [ethyl isopropyl(2-((3-(3-methoxypyridin-4-yl)imidazo[1,2-b]pyridazin-6-yl)amino)ethyl)carbamate] | ≤ 10 |
| CCOC(=O)N(C)CCNc1ccc2ncc(-c3ccc(C(=O)NC)cc3)n2n1 [ethyl methyl(2-((3-(4-(methylcarbamoyl)phenyl)imidazo[1,2-b]pyridazin-6-yl)amino)ethyl)carbamate] | ≤ 100 |
| CCOC(=O)N(C)CCNc1ccc2ncc(-c3ccc(C(=O)NC)s3)n2n1 [ethyl methyl(2-((3-(5-(methylcarbamoyl)thiophen-2-yl)imidazo[1,2-b]pyridazin-6-yl)amino)ethyl)carbamate] | ≤ 100 |
| CC(C)COC(=O)N(C)CCNc1ccc2ncc(-c3ccc(C(N)=O)cc3)n2n1 [isobutyl (2-((3-(4-carbamoylphenyl)imidazo[1,2-b]pyridazin-6-yl)amino)ethyl)(methyl)carbamate] | ≤ 100 |
| COc1cnccc1-c1cnc2ccc(NCCN(C(=O)OCC(C)C)C(C)C)nn12 [isobutyl isopropyl(2-((3-(3-methoxypyridin-4-yl)imidazo[1,2-b]pyridazin-6-yl)amino)ethyl)carbamate] | ≤ 100 |
| CNC(=O)c1ccc(-c2cnc3ccc(NCCN(C)C(=O)OCC(C)C)nn23)cc1 [isobutyl methyl(2-((3-(4-(methylcarbamoyl)phenyl)imidazo[1,2-b]pyridazin-6-yl)amino)ethyl)carbamate] | ≤ 100 |
| CC(C)OC(=O)N1CCN(c2ccc3ncc(-c4cccc5c4OCC5)n3n2)CC1 [isopropyl 4-(3-(2,3-dihydrobenzofuran-7-yl)imidazo[1,2-b]pyridazin-6-yl)piperazine-1-carboxylate] | ≤ 100 |
| COc1cnccc1-c1cnc2ccc(N3CCN(C(=O)OC(C)C)CC3)nn12 [isopropyl 4-(3-(3-methoxypyridin-4-yl)imidazo[1,2-b]pyridazin-6-yl)piperazine-1-carboxylate] | ≤ 10 |
| CC(C)OC(=O)N1CCN(c2ccc3ncc(-c4cccc5c4OCO5)n3n2)CC1 [isopropyl 4-(3-(benzo[d][1,3]dioxo1-4-yl)imidazo[1,2-b]pyridazin-6-yl)piperazine-1-carboxylate] | ≤ 100 |
